The values below come from US20110118347A1, “TREATMENT Of RINGWORM” (Vernolix Limited, priority 2008, published 2011).

Data set [1] can be described thus: Penetration of compounds of Formula I into mammalian skin (living pig skin). In kind it is in vitro ADME. The following applies: 5% by wt in lanolin-based cream, applied to outer surface of living pig skin, after one hour. The source says: The formulation may be applied to the outer surface of a section of living pig skin.
The next data set concerns T. tonsurans. As to the kind of experiment: Screen for activity against fungal lawns of T. tonsurans. The class given is cell-based, Trichophyton tonsurans.

Take `CCCCCC(O)C(O)CC=CCCCCCCCC(=O)O` (centres unmarked) [Compound (iv), 12,13-dihydroxyoctadec-9-enoic acid]: the “penetration of the active compounds into the dermis and epidermis” value in data set [1] is “a significant amount of compounds (i) and (iv) has penetrated the dermis”. Moreover, the “fungicidal activity against fungal lawns of T. tonsurans” value in the data set with T. tonsurans is on record as “effective fungicidal activity”.
